Results from US20240132484A1, “BROAD SPECTRUM ANTIVIRAL COMPOUNDS TARGETING THE SKI COMPLEX” (priority 2020, published 2024).

Test system: Influenza virus
Test: organism not typed
Assay type: cell-based, influenza A virus
Settings: for Flu titer (pfu/ml): A549 cells; for Flu titer (pfu/ml) / Influenza virus titer, 10 μM / Influenza virus titer, 50 μM: plaque assay; for Avg PFU/ml: average of first and second experiment; for Influenza virus titer, 10 μM / Influenza virus titer, 50 μM: upper part of table (FIG. 5 data)

SMILES | Flu titer (pfu/ml) (1 μM compound) | Flu titer (pfu/ml) (10 μM compound) | Flu titer (pfu/ml) (50 μM compound) | first experiment (10 μM screen) [PFU/ml] | second experiment (10 μM screen) [PFU/ml] | Avg PFU/ml (10 μM screen) [PFU/ml] | Influenza virus titer, 10 μM [PFU/virus/ml] | first experiment PFU/ml (50 μM screen) [PFU/ml] | second experiment PFU/ml (50 μM screen) [PFU/ml] | Avg PFU/ml (50 μM screen) [PFU/ml] | Influenza virus titer, 50 μM [PFU/virus/ml]
CCCCC(=O)Nc1cccc(NC(=O)COc2ccc(C3CCCCC3)cc2)c1 [Compound 7973169, N-(3-{[2-(4-cyclohexylphenoxy)acetyl]amino}phenyl)pentanamide] | 101000 | 66000 | 110000 | – | – | – | – | – | – | – | –
COc1ccc(CNCCCn2ccnc2)c(OCC(O)CN2CCN(C)CC2)c1 (centres unmarked) [Compound 18-15] | – | – | – | 16000 | 8000 | 12000 | 36000 | 70000 | 1000 | 35500 | 30000
COc1ccc(CNCCc2ccccc2Cl)c(OCC(O)CN2CCN(C)CC2)c1 (centres unmarked) [Compound 18-4] | – | – | – | 7000 | 800 | 3900 | 7000 | 1100 | 300 | 700 | 1100
COC(=O)C1CCN(CC(O)COc2cccc(CN(C)Cc3cc(C)no3)c2)CC1 (centres unmarked) [Compound 62396835, methyl 1-{2-hydroxy-3-[3-({methyl[(3-methyl-5-isoxazolyl)methyl]amino}methyl)phenoxy]propyl}-4-piperidinecarboxylate] | 66000 | 71000 | 30000 | – | – | – | – | – | – | – | –
COCCO[C@H]1[C@H](NC(=O)C(C)C)c2ccccc2C12CCN(C(=O)Cn1nc(C)cc1C)CC2 (relative stereo) [Compound 27046321, N-[(2R*,3R*)-1′-[(3,5-dimethyl-1H-pyrazol-1-yl)acetyl]-2-(2-methoxyethoxy)-2,3-dihydrospiro[indene-1,4′-piperidin]-3-yl]-2-methylpropanamide] | 110000 | 74000 | 87000 | – | – | – | – | – | – | – | –
CN(CC(O)COc1ccccc1CNCCN1CCCC1)C1CCCCC1 (centres unmarked) [Compound 74597070, 1-[cyclohexyl(methyl)amino]-3-[2-({[2-(1-pyrrolidinyl)ethyl]amino}methyl)phenoxy]-2-propanol] | 70000 | 55000 | 24000 | – | – | – | – | – | – | – | –
COc1ccc(CNCC2CCCCC2)c(OCC(O)CN2CCN(C)CC2)c1 (centres unmarked) [Compound 18-5] | – | – | – | 60000 | 500 | 30250 | 60000 | 2100 | 400 | 1250 | 2100
COc1ccc(CNCCc2cccnc2)c(OCC(O)CN2CCCCCCC2)c1 (centres unmarked) [Compound 18-9] | – | – | – | 200000 | 9000 | 104500 | 200000 | 20000 | 2600 | 11300 | 20000
